According to patent publication US12195455B2, “Succinate and fumarate acid addition salts of piperazine derivatives” (Asceneuron SA, priority 2018, dated 2025):

Procedure: The free base Example 35 (10 mg) was weighed into glass vials and water was added in 100 μL portions up to 1 mL then 0.5 mL portions thereafter. Solubility was assessed visually following a brief period of equilibration.

## C[C@@H](c1ccc2scnc2c1)N1CCN(c2ncc([S@@](C)(=N)=O)cn2)CC1 (single isomer, unassigned) [Example 35]
  visual aqueous solubility: < 1250 µg/mL
